Test results taken from patent publication US7964736B2, “Phosphagen synthesis” (Nour Heart, Inc., priority 2004, dated 2011).
Like-named read-outs stand apart in the source and are kept apart here.

Tests used:
isolated rabbit hearts [1] = settings: cited from earlier work
[2] = system: canine heart, regional warm ischemia (LAD); experiment: Regional warm ischemia (LAD), intact AMI model: coronary artery occlusion followed by reperfusion; format: in vivo; settings: LAD for 1 hour, and 2 hours reperfusion
isolated rabbit hearts [3] = experiment: Isolated ischemic rabbit hearts; format: in vivo
heart (cardioprotection) = experiment: Dose-response study of cardioprotective effect; format: in vivo
dog hearts = experiment: Inotropic or chronotropic effect on dog hearts; format: in vivo
Text: As described above, although the mechanism by which CCr preserves the heart during ischemia and restores cardiac function during reperfusion is not fully understood, it is likely to be related to preservation of ATP. […] Since the breakdown of ATP is the immediate source of energy for contraction, and that contractile performance decreases precipitously and ceases when only 20% of ATP is depleted, the reported CCr preservation of over 85% of ATP (loss of only 15%) in ischemic myocardium is likely the major contributor to the observed restoration of post-ischemic myocardial contractility (see Allam M E, et al., Surg. Forum XLI:246-249, 1990, which is incorporated by reference in its entirety).

[4] = system: canine heart, regional warm ischemia (LAD); settings: cited from earlier work
[5] = system: rat heart, global warm ischemia; settings: ischemia time 7, 9, 10 min; cited from earlier work
[6] = system: canine heart, hypothermic cardioplegic arrest; settings: cited from earlier work; for results (restoration of cardiac function): canine
[7] = system: rat hearts, normothermic cardioplegic arrest; settings: ischemia time 40 min; cited from earlier work
[8] = system: ischemic isolated rat hearts; settings: cited from earlier work
chopped whole brain = settings: 0.5% in-vitro for 90 minutes; cited from earlier work
[9] = intact canine model, coronary artery occlusion followed by reperfusion

In the case of CN(CC(=O)O)C(=N)N [Cr, creatine, reference compound], the “ATP and CrP lost” value (isolated rabbit hearts [1]; isolated ischemic rabbit hearts, control treatment) is listed as “more than 95%”.

With NC1=NCCN1CC(=O)O [CCr, 1-carboxymethyl-2-iminoimidazolidine] the “cell damage compared to control hearts” value [2] was “marked reduction in cell damage”, the tissue damage (isolated rabbit hearts [3]; 600 mg/kg intravenous for 2 hours prior to removing and perfusing hearts in-vitro for two hours) was “did not induce tissue damage” and the “histology after 2 hours reperfusion (contraction bands, eosinophilic changes)” value (isolated rabbit hearts [3]; 600 mg/kg intravenous, versus control hearts) was “only occasional small foci of contraction bands and no significant eosinophilic changes”. The “protection (Nourin-1, ATP and CrP levels)” value (isolated rabbit hearts [3]; hearts perfused with drug, without preinjection) was “no protection was observed”, the cardioprotective effect (heart (cardioprotection); 150 mg/kg) was “No effect” and the cardioprotective effect (heart (cardioprotection); 300 mg/kg) was “strong cardioprotective effect”. For the same molecule, the cardioprotective effect (heart (cardioprotection); 600 mg/kg) was “strong cardioprotective effect”, the “inotropic or chronotropic effect” value (dog hearts) was “no inotropic or chronotropic effect” and the “ATP maintained, of normal non-ischemic levels” value [4, 9] was 85%. For the same molecule, the “CrP maintained, of normal non-ischemic levels” value [4, 9] was 97%, the “loss of ATP” value [4, 9] was 15% and the “loss of CrP” value [4, 9] was 3%. For the same molecule, the “results (restoration of cardiac function)” value (shortened to “results”) ([4]; ischemia time 1 hr, canine, drug prior to ischemia) was “Restoration”, the “preservation of ATP” value ([4]; ischemic myocardium) was “over 85%” and the “results” value [5] was “Restoration”. The defibrillation ([6]; bypass surgery model, untreated canines required external defibrillation) was “defibrillated spontaneously”, the “results” value ([6]; ischemia time 1 hr) was “Restoration” and the “results” value ([6]; ischemia time 3 hrs) was “Restoration”. The “results” value [7] was “Restoration”, the “levels of ATP and CrP” value (isolated rabbit hearts [1]; isolated ischemic rabbit hearts) was “maintained high levels” and the Nourin-1 released (isolated rabbit hearts [1]; treated hearts versus controls) was “significant reduction”. For the same molecule, the defibrillation during reperfusion ([8]; fed rats versus control rats) was “spontaneously defibrillated sooner”, the “reduction of myocardial ATP, exhaustion of high-energy phosphates, onset of rigor tension during cardiac ischemia” value ([8]; long-term feeding (up to 3 weeks) with 1%, rats and chickens) was “significantly delayed” and the “ATP depletion and onset of rigor” value ([8]; prior feeding to rats, ischemic isolated hearts) was “delayed ATP depletion and the onset of rigor”. The “number of hearts recovering mechanical function upon reperfusion” value ([8]; treated rats compared to controls) was “significantly higher” and the “protection of brain tissues from ischemic injury” value (chopped whole brain) was “protected”.
